In patent US8916702B2 (priority 2012, dated 2014):

Tested on: HCV pseudoparticles (genotype 1a HCV E1 and E2 envelope, H77C isolate)
Assay: microbe, parasite or virus in culture
Format: cell-based
Details: Hepatitis C virus, Huh-7, 48 h, HCV pseudoparticle infection of Huh7 cells, luciferase 2 days after infection; average of duplicates

Row | SMILES | EC50 [nM]
1 | COC(=O)[C@H](CNC(=O)C(=O)NCCc1cccnc1)NC(=O)c1ccc(Nc2nc(NC3(c4ccc(Cl)cc4)CC3)nc(OCC(F)(F)F)n2)cc1 [Compound 1293] | 4.4
2 | COC(=O)[C@H](CCNC(=O)C(=O)NCC(C)c1ccccc1)NC(=O)c1ccc(Nc2nc(NC3(c4ccc(Cl)cc4)CC3)nc(OCC(F)(F)F)n2)cc1 (stereo partly shown) [Compound 1307] | 0.38
3 | COC(=O)[C@H](CCNC(=O)C(=O)NCCc1ccc(OC)cc1)NC(=O)c1ccc(Nc2nc(NC3(c4ccc(Cl)cc4)CC3)nc(OCC(F)(F)F)n2)cc1 [Compound 1310] | 0.62
4 | COC(=O)[C@H](CCNC(=O)C(=O)NC1Cc2ccccc2C1)NC(=O)c1ccc(Nc2nc(NC3(c4ccc(Cl)cc4)CC3)nc(OCC(F)(F)F)n2)cc1 [Compound 1314] | 0.43
5 | COC(=O)[C@H](CCNC(=O)C(=O)NCCc1ccc(F)cc1)NC(=O)c1ccc(Nc2nc(NC3(c4ccc(Cl)cc4)CC3)nc(OCC(F)(F)F)n2)cc1 [Compound 1315] | 1.03
6 | COC(=O)[C@H](CCNC(=O)C(=O)NCCc1cccnc1)NC(=O)c1ccc(Nc2nc(NC3(c4ccc(Cl)cc4)CC3)nc(OCC(F)(F)F)n2)cc1 [Compound 1316] | 0.57
7 | COC(=O)[C@H](CCNC(=O)C(=O)NCCn1ccnc1C)NC(=O)c1ccc(Nc2nc(NC3(c4ccc(Cl)cc4)CC3)nc(OCC(F)(F)F)n2)cc1 [Compound 1323] | 6.28
8 | O=C(NCCc1ccc(F)cc1)C(=O)NCC[C@H](NC(=O)c1ccc(Nc2nc(NC3(c4ccc(Cl)cc4)CC3)nc(OCC(F)(F)F)n2)cc1)C(=O)O [Compound 1336] | 0.88
9 | CC(C)(Cc1ccc(F)cc1)NC(=O)C(=O)NCC[C@H](NC(=O)c1ccc(Nc2nc(NC3(c4ccc(Cl)cc4)CC3)nc(OCC(F)(F)F)n2)cc1)C(=O)O [Compound 1340] | 0.1

Same assay, conditions: Hepatitis C virus, Huh-7, 48 h, read-out: Activity (EC50 class), HCV pseudoparticle infection of Huh7 cells, luciferase 2 days after infection; EC50 expressed as class A/B

Row | SMILES | EC50 [nM]
10 | COC(=O)[C@H](CNC(=O)C(=O)NCCc1ccc(F)cc1)NC(=O)c1ccc(Nc2nc(NC3(c4ccc(Cl)cc4)CC3)nc(OCC(F)(F)F)n2)cc1 [Compound 1292] | 0.01 to 10
11 | COC(=O)[C@H](CNC(=O)C(=O)NCCc1cccnc1)NC(=O)c1ccc(Nc2nc(NC3(c4ccc(Cl)cc4)CC3)nc(OCC(F)(F)F)n2)cc1 [Compound 1293] | 0.01 to 10
12 | COC(=O)[C@H](CNC(=O)C(=O)N[C@H]1C[C@H]1c1ccccc1)NC(=O)c1ccc(Nc2nc(NC3(c4ccc(Cl)cc4)CC3)nc(OCC(F)(F)F)n2)cc1 [Compound 1294] | 0.01 to 10
13 | COC(=O)[C@H](CNC(=O)C(=O)NCCc1c[nH]cn1)NC(=O)c1ccc(Nc2nc(NC3(c4ccc(Cl)cc4)CC3)nc(OCC(F)(F)F)n2)cc1 [Compound 1295] | 10 to 1000
14 | COC(=O)[C@H](CNC(=O)C(=O)NC(C)(C)Cc1ccc(F)cc1)NC(=O)c1ccc(Nc2nc(NC3(c4ccc(Cl)cc4)CC3)nc(OCC(F)(F)F)n2)cc1 [Compound 1296] | 0.01 to 10
15 | COC(=O)[C@H](CNC(=O)C(=O)NCC1OCCc2ccccc21)NC(=O)c1ccc(Nc2nc(NC3(c4ccc(Cl)cc4)CC3)nc(OCC(F)(F)F)n2)cc1 (stereo partly shown) [Compound 1297] | 0.01 to 10
16 | COC(=O)[C@H](CNC(=O)C(=O)NCCn1cncn1)NC(=O)c1ccc(Nc2nc(NC3(c4ccc(Cl)cc4)CC3)nc(OCC(F)(F)F)n2)cc1 [Compound 1298] | 0.01 to 10
17 | COC(=O)[C@H](CNC(=O)C(=O)NCC1CCCc2ccccc21)NC(=O)c1ccc(Nc2nc(NC3(c4ccc(Cl)cc4)CC3)nc(OCC(F)(F)F)n2)cc1 (stereo partly shown) [Compound 1299] | 0.01 to 10
18 | COC(=O)[C@H](CNC(=O)C(=O)NCCn1cccn1)NC(=O)c1ccc(Nc2nc(NC3(c4ccc(Cl)cc4)CC3)nc(OCC(F)(F)F)n2)cc1 [Compound 1300] | 0.01 to 10
19 | COC(=O)[C@H](CNC(=O)C(=O)NCCn1ccnc1C)NC(=O)c1ccc(Nc2nc(NC3(c4ccc(Cl)cc4)CC3)nc(OCC(F)(F)F)n2)cc1 [Compound 1301] | 0.01 to 10
20 | COC(=O)[C@H](CNC(=O)C(=O)NCCc1cnn(C)c1)NC(=O)c1ccc(Nc2nc(NC3(c4ccc(Cl)cc4)CC3)nc(OCC(F)(F)F)n2)cc1 [Compound 1302] | 0.01 to 10
21 | COC(=O)[C@H](CNC(=O)C(=O)NCC1CCc2ccccc21)NC(=O)c1ccc(Nc2nc(NC3(c4ccc(Cl)cc4)CC3)nc(OCC(F)(F)F)n2)cc1 (stereo partly shown) [Compound 1303] | 0.01 to 10
22 | COC(=O)[C@H](CNC(=O)C(=O)NC1(Cc2ccccc2)CC1)NC(=O)c1ccc(Nc2nc(NC3(c4ccc(Cl)cc4)CC3)nc(OCC(F)(F)F)n2)cc1 [Compound 1304] | 0.01 to 10
23 | COC(=O)[C@H](CNC(=O)C(=O)NC1CCCCC1c1ccccc1)NC(=O)c1ccc(Nc2nc(NC3(c4ccc(Cl)cc4)CC3)nc(OCC(F)(F)F)n2)cc1 (stereo partly shown) [Compound 1305] | 0.01 to 10
24 | COC(=O)[C@H](CCNC(=O)C(=O)NCCc1ccccn1)NC(=O)c1ccc(Nc2nc(NC3(c4ccc(Cl)cc4)CC3)nc(OCC(F)(F)F)n2)cc1 [Compound 1306] | 0.01 to 10
25 | COC(=O)[C@H](CCNC(=O)C(=O)NCC(C)c1ccccc1)NC(=O)c1ccc(Nc2nc(NC3(c4ccc(Cl)cc4)CC3)nc(OCC(F)(F)F)n2)cc1 (stereo partly shown) [Compound 1307] | 0.01 to 10
26 | COC(=O)[C@H](CCNC(=O)C(=O)NCCc1ccccc1)NC(=O)c1ccc(Nc2nc(NC3(c4ccc(Cl)cc4)CC3)nc(OCC(F)(F)F)n2)cc1 [Compound 1308] | 0.01 to 10
27 | COC(=O)[C@H](CCNC(=O)C(=O)NCCc1cccc(OC)c1)NC(=O)c1ccc(Nc2nc(NC3(c4ccc(Cl)cc4)CC3)nc(OCC(F)(F)F)n2)cc1 [Compound 1309] | 0.01 to 10
28 | COC(=O)[C@H](CCNC(=O)C(=O)NCCc1ccc(OC)cc1)NC(=O)c1ccc(Nc2nc(NC3(c4ccc(Cl)cc4)CC3)nc(OCC(F)(F)F)n2)cc1 [Compound 1310] | 0.01 to 10
29 | COC(=O)[C@H](CCNC(=O)C(=O)NCCc1ccncc1)NC(=O)c1ccc(Nc2nc(NC3(c4ccc(Cl)cc4)CC3)nc(OCC(F)(F)F)n2)cc1 [Compound 1311] | 0.01 to 10
30 | COC(=O)[C@H](CCNC(=O)C(=O)NCCc1cccc(F)c1)NC(=O)c1ccc(Nc2nc(NC3(c4ccc(Cl)cc4)CC3)nc(OCC(F)(F)F)n2)cc1 [Compound 1312] | 0.01 to 10
31 | COC(=O)[C@H](CCNC(=O)C(=O)NCCc1ccccc1F)NC(=O)c1ccc(Nc2nc(NC3(c4ccc(Cl)cc4)CC3)nc(OCC(F)(F)F)n2)cc1 [Compound 1313] | 0.01 to 10
32 | COC(=O)[C@H](CCNC(=O)C(=O)NC1Cc2ccccc2C1)NC(=O)c1ccc(Nc2nc(NC3(c4ccc(Cl)cc4)CC3)nc(OCC(F)(F)F)n2)cc1 [Compound 1314] | 0.01 to 10
33 | COC(=O)[C@H](CCNC(=O)C(=O)NCCc1ccc(F)cc1)NC(=O)c1ccc(Nc2nc(NC3(c4ccc(Cl)cc4)CC3)nc(OCC(F)(F)F)n2)cc1 [Compound 1315] | 0.01 to 10
34 | COC(=O)[C@H](CCNC(=O)C(=O)NCCc1cccnc1)NC(=O)c1ccc(Nc2nc(NC3(c4ccc(Cl)cc4)CC3)nc(OCC(F)(F)F)n2)cc1 [Compound 1316] | 0.01 to 10

Row | SMILES | EC50 [nM]
35 | COC(=O)[C@H](CCNC(=O)C(=O)N[C@H]1C[C@H]1c1ccccc1)NC(=O)c1ccc(Nc2nc(NC3(c4ccc(Cl)cc4)CC3)nc(OCC(F)(F)F)n2)cc1 [Compound 1317] | 0.01 to 10
36 | COC(=O)[C@H](CCNC(=O)C(=O)NCCc1c[nH]cn1)NC(=O)c1ccc(Nc2nc(NC3(c4ccc(Cl)cc4)CC3)nc(OCC(F)(F)F)n2)cc1 [Compound 1318] | 0.01 to 10
37 | COC(=O)[C@H](CCNC(=O)C(=O)NC(C)(C)Cc1ccc(F)cc1)NC(=O)c1ccc(Nc2nc(NC3(c4ccc(Cl)cc4)CC3)nc(OCC(F)(F)F)n2)cc1 [Compound 1319] | 0.01 to 10
38 | COC(=O)[C@H](CCNC(=O)C(=O)NCC1OCCc2ccccc21)NC(=O)c1ccc(Nc2nc(NC3(c4ccc(Cl)cc4)CC3)nc(OCC(F)(F)F)n2)cc1 (stereo partly shown) [Compound 1320] | 0.01 to 10
39 | COC(=O)[C@H](CCNC(=O)C(=O)NCCn1cncn1)NC(=O)c1ccc(Nc2nc(NC3(c4ccc(Cl)cc4)CC3)nc(OCC(F)(F)F)n2)cc1 [Compound 1321] | 0.01 to 10
40 | COC(=O)[C@H](CCNC(=O)C(=O)NCC1CCCc2ccccc21)NC(=O)c1ccc(Nc2nc(NC3(c4ccc(Cl)cc4)CC3)nc(OCC(F)(F)F)n2)cc1 (stereo partly shown) [Compound 1322] | 0.01 to 10
41 | COC(=O)[C@H](CCNC(=O)C(=O)NCCn1ccnc1C)NC(=O)c1ccc(Nc2nc(NC3(c4ccc(Cl)cc4)CC3)nc(OCC(F)(F)F)n2)cc1 [Compound 1323] | 0.01 to 10
42 | COC(=O)[C@H](CCNC(=O)C(=O)NCC1CCc2ccccc21)NC(=O)c1ccc(Nc2nc(NC3(c4ccc(Cl)cc4)CC3)nc(OCC(F)(F)F)n2)cc1 (stereo partly shown) [Compound 1324] | 0.01 to 10
43 | COC(=O)[C@H](CCNC(=O)C(=O)NC1(Cc2ccccc2)CC1)NC(=O)c1ccc(Nc2nc(NC3(c4ccc(Cl)cc4)CC3)nc(OCC(F)(F)F)n2)cc1 [Compound 1325] | 0.01 to 10
44 | O=C(NCCc1ccccn1)C(=O)NCC[C@H](NC(=O)c1ccc(Nc2nc(NC3(c4ccc(Cl)cc4)CC3)nc(OCC(F)(F)F)n2)cc1)C(=O)O [Compound 1326] | 0.01 to 10
45 | CC(CNC(=O)C(=O)NCC[C@H](NC(=O)c1ccc(Nc2nc(NC3(c4ccc(Cl)cc4)CC3)nc(OCC(F)(F)F)n2)cc1)C(=O)O)c1ccccc1 (stereo partly shown) [Compound 1327] | 0.01 to 10
46 | O=C(NCCc1ccccc1)C(=O)NCC[C@H](NC(=O)c1ccc(Nc2nc(NC3(c4ccc(Cl)cc4)CC3)nc(OCC(F)(F)F)n2)cc1)C(=O)O [Compound 1328] | 0.01 to 10
47 | COc1ccccc1CCNC(=O)C(=O)NCC[C@H](NC(=O)c1ccc(Nc2nc(NC3(c4ccc(Cl)cc4)CC3)nc(OCC(F)(F)F)n2)cc1)C(=O)O [Compound 1329] | 0.01 to 10
48 | COc1cccc(CCNC(=O)C(=O)NCC[C@H](NC(=O)c2ccc(Nc3nc(NC4(c5ccc(Cl)cc5)CC4)nc(OCC(F)(F)F)n3)cc2)C(=O)O)c1 [Compound 1330] | 0.01 to 10
49 | COc1ccc(CCNC(=O)C(=O)NCC[C@H](NC(=O)c2ccc(Nc3nc(NC4(c5ccc(Cl)cc5)CC4)nc(OCC(F)(F)F)n3)cc2)C(=O)O)cc1 [Compound 1331] | 0.01 to 10
50 | O=C(NCCc1ccncc1)C(=O)NCC[C@H](NC(=O)c1ccc(Nc2nc(NC3(c4ccc(Cl)cc4)CC3)nc(OCC(F)(F)F)n2)cc1)C(=O)O [Compound 1332] | 0.01 to 10
51 | O=C(NCCc1cccc(F)c1)C(=O)NCC[C@H](NC(=O)c1ccc(Nc2nc(NC3(c4ccc(Cl)cc4)CC3)nc(OCC(F)(F)F)n2)cc1)C(=O)O [Compound 1333] | 0.01 to 10
52 | O=C(NCCc1ccccc1F)C(=O)NCC[C@H](NC(=O)c1ccc(Nc2nc(NC3(c4ccc(Cl)cc4)CC3)nc(OCC(F)(F)F)n2)cc1)C(=O)O [Compound 1334] | 0.01 to 10
53 | O=C(NCC[C@H](NC(=O)c1ccc(Nc2nc(NC3(c4ccc(Cl)cc4)CC3)nc(OCC(F)(F)F)n2)cc1)C(=O)O)C(=O)NC1Cc2ccccc2C1 [Compound 1335] | 0.01 to 10
54 | O=C(NCCc1ccc(F)cc1)C(=O)NCC[C@H](NC(=O)c1ccc(Nc2nc(NC3(c4ccc(Cl)cc4)CC3)nc(OCC(F)(F)F)n2)cc1)C(=O)O [Compound 1336] | 0.01 to 10
55 | O=C(NCCc1cccnc1)C(=O)NCC[C@H](NC(=O)c1ccc(Nc2nc(NC3(c4ccc(Cl)cc4)CC3)nc(OCC(F)(F)F)n2)cc1)C(=O)O [Compound 1337] | 0.01 to 10
56 | O=C(NCC[C@H](NC(=O)c1ccc(Nc2nc(NC3(c4ccc(Cl)cc4)CC3)nc(OCC(F)(F)F)n2)cc1)C(=O)O)C(=O)N[C@H]1C[C@H]1c1ccccc1 [Compound 1338] | 0.01 to 10
57 | O=C(NCCc1c[nH]cn1)C(=O)NCC[C@H](NC(=O)c1ccc(Nc2nc(NC3(c4ccc(Cl)cc4)CC3)nc(OCC(F)(F)F)n2)cc1)C(=O)O [Compound 1339] | 0.01 to 10
58 | CC(C)(Cc1ccc(F)cc1)NC(=O)C(=O)NCC[C@H](NC(=O)c1ccc(Nc2nc(NC3(c4ccc(Cl)cc4)CC3)nc(OCC(F)(F)F)n2)cc1)C(=O)O [Compound 1340] | 0.01 to 10
